Measured values from the supplement of paper PMC10307832.

What was measured:
Experiment in all cases: relative viability (nuclei count vs DMSO), 5 days (fraction); higher = more cells survive
Avagacestat + Linsitinib = compound: NC(=O)[C@@H](CCC(F)(F)F)N(Cc1ccc(-c2ncon2)cc1F)S(=O)(=O)c1ccc(Cl)cc1 [Avagacestat] + C[C@]1(O)C[C@@H](c2nc(-c3ccc4ccc(-c5ccccc5)nc4c3)c3c(N)nccn32)C1 [Linsitinib] (partner 1 µM)
Procedure, shortened: (§1)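 Medians of duplicate plates are given as relative viability. That measure is the nuclei count in treated wells divided by the count in vehicle wells. Counts were taken on 4× images of lung cancer cell lines in 1536-well plates, 5 days after pin-tool dosing the day after seeding with one drug alone or a fixed anchor-drug dose plus five library-drug doses (not always all listed) in √10 steps.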

Avagacestat + Vorinostat = compound: NC(=O)[C@@H](CCC(F)(F)F)N(Cc1ccc(-c2ncon2)cc1F)S(=O)(=O)c1ccc(Cl)cc1 [Avagacestat] + O=C(CCCCCCC(=O)Nc1ccccc1)NO [Vorinostat] (partner 1 µM)
Procedure, shortened: as §1

Avagacestat + Pemetrexed = compound: NC(=O)[C@@H](CCC(F)(F)F)N(Cc1ccc(-c2ncon2)cc1F)S(=O)(=O)c1ccc(Cl)cc1 [Avagacestat] + Nc1nc2[nH]cc(CCc3ccc(C(=O)N[C@@H](CCC(=O)O)C(=O)O)cc3)c2c(=O)[nH]1 [Pemetrexed] (partner 0.2 µM)
Procedure, shortened: as §1

Avagacestat + Navitoclax = compound: NC(=O)[C@@H](CCC(F)(F)F)N(Cc1ccc(-c2ncon2)cc1F)S(=O)(=O)c1ccc(Cl)cc1 [Avagacestat] + CC1(C)CCC(c2ccc(Cl)cc2)=C(CN2CCN(c3ccc(C(=O)NS(=O)(=O)c4ccc(N[C@H](CCN5CCOCC5)CSc5ccccc5)c(S(=O)(=O)C(F)(F)F)c4)cc3)CC2)C1 [Navitoclax] (partner 0.5 µM)
Procedure, shortened: as §1

Row | Cell Line | relative viability (Avagacestat + Linsitinib; first compound 0.08 µM) | relative viability (Avagacestat + Linsitinib; first compound 0.253 µM) | relative viability (Avagacestat + Linsitinib; first compound 0.8 µM) | relative viability (Avagacestat + Linsitinib; first compound 2.53 µM) | relative viability (Avagacestat + Linsitinib; first compound 8 µM) | relative viability (Avagacestat + Vorinostat; first compound 0.08 µM) | relative viability (Avagacestat + Vorinostat; first compound 0.253 µM) | relative viability (Avagacestat + Vorinostat; first compound 0.8 µM) | relative viability (Avagacestat + Vorinostat; first compound 2.53 µM) | relative viability (Avagacestat + Vorinostat; first compound 8 µM) | relative viability (Avagacestat + Pemetrexed; first compound 0.08 µM) | relative viability (Avagacestat + Pemetrexed; first compound 0.253 µM) | relative viability (Avagacestat + Pemetrexed; first compound 0.8 µM) | relative viability (Avagacestat + Pemetrexed; first compound 2.53 µM) | relative viability (Avagacestat + Pemetrexed; first compound 8 µM) | relative viability (Avagacestat + Navitoclax; first compound 0.08 µM) | relative viability (Avagacestat + Navitoclax; first compound 0.253 µM) | relative viability (Avagacestat + Navitoclax; first compound 0.8 µM) | relative viability (Avagacestat + Navitoclax; first compound 2.53 µM) | relative viability (Avagacestat + Navitoclax; first compound 8 µM)
1 | HCC-366 | 1.06 | 0.782 | 0.835 | 0.471 | 0.373 | 0.472 | 0.426 | 0.437 | 0.31 | 0.385 | 0.199 | 0.195 | 0.191 | 0.161 | 0.142 | 1.23 | 1.48 | 1 | 1.09 | 1.01
2 | HCC-827 | 1.03 | 1.02 | 0.931 | 0.995 | 1.08 | 0.75 | 0.849 | 0.855 | 0.946 | 0.832 | 0.304 | 0.271 | 0.296 | 0.221 | 0.257 | 1.12 | 1.02 | 1.11 | 1.07 | 1.02
3 | HOP-62 | 1.06 | 0.852 | 0.992 | 0.919 | 0.94 | 0.822 | 0.667 | 0.65 | 0.588 | 0.564 | 0.344 | 0.359 | 0.329 | 0.312 | 0.29 | 1.26 | 1.12 | 0.962 | 0.978 | 0.895
4 | IA-LM | 1.24 | 0.859 | 1.11 | 1.01 | 0.984 | 1.56 | 1.59 | 1.51 | 0.957 | 0.992 | – | – | – | – | – | 1.25 | 1.3 | 1.34 | 1.21 | 1.18
5 | LC-2-ad | 0.819 | 0.896 | 0.87 | 0.778 | 0.807 | 0.73 | 0.847 | 0.74 | 0.654 | 0.595 | 0.286 | 0.276 | 0.264 | 0.263 | 0.273 | 0.652 | 0.528 | 0.534 | 0.423 | 0.428
6 | LCLC-97TM1 | 0.161 | 0.212 | 0.155 | 0.151 | 0.163 | 1.01 | 0.847 | 0.862 | 0.838 | 0.57 | 0.177 | 0.177 | 0.159 | 0.166 | 0.146 | 0.467 | 0.409 | 0.39 | 0.128 | 0.341
7 | LCLC-103H | 1.08 | 1.01 | 1.24 | 1.01 | 0.877 | 0.807 | 0.759 | 0.846 | 0.864 | 0.673 | 0.448 | 0.412 | 0.433 | 0.456 | 0.486 | – | – | – | – | –
8 | LK-2 | 0.966 | 0.49 | 0.386 | – | 0.505 | 0.196 | 0.353 | 0.265 | – | 0.22 | 0.272 | 0.294 | 0.314 | 0.251 | 0.264 | 1.16 | 0.969 | 0.704 | 0.365 | 0.797
9 | NCI-H358 | 0.774 | 0.822 | 0.839 | 0.687 | 0.724 | 0.911 | 0.762 | 0.733 | 0.557 | 0.679 | 0.168 | 0.197 | 0.18 | 0.172 | 0.168 | – | – | – | – | –
